Laboratory results: patent publication US7888372B2, “Compositions and methods for modulating bone mineral deposition” (National Institutes of Health (NIH), priority 2001, dated 2011)

How the values were obtained:
[1] = test system: ank/ank osteoblast cultures; assay: Addition of recombinant proteins or PPi to ank/ank osteoblast cultures; type: cell-based, mouse
[2] = test system: PC-1-/- osteoblast cultures; assay: Addition of recombinant proteins or PPi to PC-1-/- osteoblast cultures; type: cell-based, mouse
TNAP activity = target: T1, TNAP activity (Mus musculus, UniProt P09242); set-up: endogenous in cells; settings: cited from earlier work
T1 sequence (P09242 18-501): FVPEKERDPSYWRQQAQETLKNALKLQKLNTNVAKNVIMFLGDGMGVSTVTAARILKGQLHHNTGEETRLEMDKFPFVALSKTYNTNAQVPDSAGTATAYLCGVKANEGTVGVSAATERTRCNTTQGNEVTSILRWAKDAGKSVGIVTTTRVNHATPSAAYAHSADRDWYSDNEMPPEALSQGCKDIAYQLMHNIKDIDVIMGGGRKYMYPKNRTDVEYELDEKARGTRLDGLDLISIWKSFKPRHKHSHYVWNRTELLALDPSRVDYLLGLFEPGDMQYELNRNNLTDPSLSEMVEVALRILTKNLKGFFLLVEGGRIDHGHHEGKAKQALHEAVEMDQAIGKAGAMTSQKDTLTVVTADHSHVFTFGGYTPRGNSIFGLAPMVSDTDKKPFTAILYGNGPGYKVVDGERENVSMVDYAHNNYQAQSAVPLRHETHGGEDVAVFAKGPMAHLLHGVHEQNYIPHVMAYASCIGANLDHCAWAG

Question: With `O=P(O)(O)OP(=O)(O)O` [PPi, inorganic pyrophosphate, reference compound] as the compound, how does the osteopontin expression levels ([1]; osteoblast cultures deficient in ANK protein) read?
Answer: Its osteopontin expression levels is “corrected their osteopontin expression levels to those comparable to wild-type”.

Question: What about the osteopontin expression levels ([2]; osteoblast cultures deficient in PC-1) of the same compound?
Answer: The osteopontin expression levels was “corrected their osteopontin expression levels to those comparable to wild-type”.

Question: For `N=C(N)NCCCC[C@H](N)C(=O)O` [L-homoarginine], which “kind of inhibitor of TNAP activity” value (TNAP activity) is on record?
Answer: The value was “specific uncompetitive inhibitors of TNAP activity”.

Question: With `c1ccc([C@H]2CN3CCSC3=N2)cc1` [levamisole] as the compound, how does the “kind of inhibitor of TNAP activity” value (TNAP activity) read?
Answer: The value was “specific uncompetitive inhibitors of TNAP activity”.

Question: For “recombinant osteopontin: recombinant osteopontin added to osteoblast cultures”, which “mineralization capacity (matrix calcification)” value ([1]; ank/ank osteoblast cultures) is on record?
Answer: Its value is “restored to normal”.

Question: What about the “mineralization capacity (matrix calcification)” value ([2]; PC-1-/- osteoblast cultures) of the same compound?
Answer: Its value is “restored to normal”.
